Experimental findings from patent publication US8546565B2, “Quinazolinamide derivatives” (Merck Patent Gesellschaft, priority 2008, dated 2013) are described below.

For this assay, the target named is T1, Recombinant human HSP90a (Homo sapiens, UniProt P07900).
T1 construct: host or cells: E. coli
Briefly: HSP90 radioligand filter binding test ([3H]17AAG competition). The conditions noted are these: [3H]17AAG 0.08 μM, HSP90 1.5 μg/assay, 22° C., 30 min; read-out: IC50 (HSP90 inhibition). An excerpt: Test Method for the Measurement of HSP90 Inhibitors
The binding of geldanamycin or 17-allylamino-17-demethoxygeldanamycin (17AAG) to HSP90 and competitive inhibition thereof can be utilised in order to determine the inhibitory activity of the compounds according to the invention (Carreras et al. 2003, Chiosis et al. 2002).
In the specific case, a radioligand filter binding test is used. The radioligand used here is tritium-labelled 17-allylaminogeldanamycin, [3H]17AAG. This filter binding test allows a targeted search for inhibitors which interfere with the ATP binding site.
Recombinant human HSP90a (E. coli expressed, 95% purity);
[3H]17AAG (17-allylaminogeldanamycin, [allylamino-2,3-^3H. Specific activity: 1.11×10^12 Bq/mmol (Moravek, MT-1717);
HEPES filter buffer (50 mM HEPES, pH 7.0, 5 mM MgCl2, BSA 0.01%)
Multiscreen FB (1 μm) filter plate (Millipore, MAFBNOB 50).
The 96-well microtitre filter plates are firstly irrigated and coated with 0.1% of polyethylenimine.
The test is carried out under the following conditions:
Reaction temperature 22° C.
Reaction time: 30 min., shaking at 800 rpm
50 mM HEPES HCl, pH 7.0, 5 mM MgCl2, 0.01% (w/v) of BSA
At the end of the reaction, the supernatant in the filter plate is removed by suction with the aid of a vacuum manifold (Multiscreen Separation System, Millipore), and the filter is washed twice.
The filter plates are then measured in a beta counter (Microbeta, Wallac) with scintillator (Microscint 20, Packard).
“% of control” is determined from the “counts per minutes” values, and the IC-50 value of a compound is calculated therefrom.

The term IC50 denotes the concentration at which inhibition is half-maximal. On to `Nc1nc(C(=O)N2Cc3ccccc3C2)c2cc(-c3ccccc3S(=O)(=O)N3CC(F)(F)C3)ccc2n1` [Compound A60], for which the concentration for half-maximal inhibition (IC50) fell in the range of 10 to 1000 nM.

On to `Nc1nc(C(=O)N2Cc3ccccc3C2)c2cc(-c3ccccc3S(=O)(=O)NC3CC3)ccc2n1` [Compound A52, 2-[2-Amino-4-(1,3-dihydroisoindole-2-carbonyl)quinazolin-6-yl]-N-cyclopropylbenzenesulfonamide], for which the half-maximal inhibitory concentration (IC50) is 10 to 1000 nM.

Take `Nc1nc(C(=O)N2Cc3ccccc3C2)c2cc(-c3ccccc3C(=O)N3CCC(N)C3)ccc2n1` (stereo not drawn) [Compound A43, {2-amino-6-[2-(3-aminopyrrolidine-1-carbonyl)phenyl]quinazolin-4-yl}-(1,3-dihydroisoindol-2-yl)methanone]: the half-inhibitory concentration (IC50) was 10 to 1000 nM.

Consider `Nc1nc(C(=O)N2Cc3ccccc3C2)c2cc(-c3ccccc3C(=O)N3CCC3)ccc2n1` [Compound A54], for which the IC50 was 10 to 1000 nM.

For `CCN(CCO)C(=O)c1ccccc1-c1ccc2nc(N)nc(C(=O)N3Cc4ccccc4C3)c2c1` [Compound A24], the IC50 is 10 to 1000 nM.

`CCNC(=O)c1cc(F)c(F)cc1-c1ccc2nc(N)nc(C(=O)N3Cc4ccccc4C3)c2c1` [Compound A74, 2-[2-Amino-4-(1,3-dihydroisoindole-2-carbonyl)quinazolin-6-yl]-N-ethyl-4,5-difluorobenzamide]: the IC50 is 10 to 1000 nM.

Turning to `C[C@H]1CCCN1C(=O)c1ccccc1-c1ccc2nc(N)nc(C(=O)N3Cc4ccccc4C3)c2c1` [Compound A72, {2-Amino-6-[2-((S)-2-methylpyrrolidine-1-carbonyl)phenyl]quinazolin-4-yl}-(1,3-dihydroisoindol-2-yl)methanone], the IC50 was 10 to 1000 nM.

Take `CCNS(=O)(=O)c1ccccc1-c1ccc2nc(N)nc(C(=O)N3Cc4ccccc4C3)c2c1` [Compound A5, 2-[2-Amino-4-(1,3-dihydroisoindole-2-carbonyl)quinazolin-6-yl]-N-ethylbenzenesulfonamide]: the half-inhibitory concentration (IC50) is 10 to 1000 nM.

Turning to `COC(=O)C1CCCN1C(=O)c1ccccc1-c1ccc2nc(N)nc(C(=O)N3Cc4ccccc4C3)c2c1` (stereo not drawn) [Compound A37, Methyl 1-{2-[2-amino-4-(1,3-dihydroisoindole-2-carbonyl)quinazolin-6-yl]benzoyl}pyrrolidine-2-carboxylate], the IC50 fell in the range of 10 to 1000 nM.

As to `Nc1nc(C(=O)N2Cc3ccccc3C2)c2cc(-c3ccccc3C(=O)NC3CCC3)ccc2n1` [Compound A46, 2-[2-Amino-4-(1,3-dihydroisoindole-2-carbonyl)quinazolin-6-yl]-N-cyclobutylbenzamide], the 50% inhibitory concentration (IC50) fell in the range of 10 to 1000 nM.

With `CC(=O)NC1CCN(S(=O)(=O)c2ccccc2-c2ccc3nc(N)nc(C(=O)N4Cc5ccccc5C4)c3c2)C1` (stereo not drawn) [Compound A20], the IC50 lay in the range of 10 to 1000 nM.

Take `Nc1nc(C(=O)N2Cc3ccccc3C2)c2cc(-c3ccccc3S(=O)(=O)N3CCCC3)ccc2n1` [Compound A32, {2-Amino-6-[2-(pyrrolidine-1-sulfonyl)phenyl]quinazolin-4-yl}-(1,3-dihydroisoindol-2-yl)methanone]: the half-maximal inhibitory concentration (IC50) is 10 to 1000 nM.

As for `NCC(=O)OC1CCN(S(=O)(=O)c2ccccc2-c2ccc3nc(N)nc(C(=O)N4Cc5ccccc5C4)c3c2)CC1` [Compound A10, 1-{2-[2-amino-4-(1,3-dihydroisoindole-2-carbonyl)quinazolin-6-yl]benzenesulfonyl}piperidin-4-yl aminoacetate], the IC50 is 10 to 1000 nM.

For `Nc1nc(C(=O)N2Cc3ccccc3C2)c2cc(-c3ccccc3S(=O)(=O)N3CCC(CO)C3)ccc2n1` (stereo not drawn) [Compound A21, {2-Amino-6-[2-(3-hydroxymethylpyrrolidine-1-sulfonyl)phenyl]quinazolin-4-yl}-(1,3-dihydroisoindol-2-yl)methanone], the half-maximal inhibitory concentration (IC50) was in the range of 10 to 1000 nM.

`CN(C(C)(C)C)S(=O)(=O)c1ccccc1-c1ccc2nc(N)nc(C(=O)N3Cc4ccccc4C3)c2c1` [Compound A59, 2-[2-Amino-4-(1,3-dihydroisoindole-2-carbonyl)quinazolin-6-yl]-N-tert-butyl-N-methylbenzenesulfonamide]: the IC50 lay in the range of 10 to 1000 nM.

As for `CC(CN(C)C)NS(=O)(=O)c1ccccc1-c1ccc2nc(N)nc(C(=O)N3Cc4ccccc4C3)c2c1` (stereo not drawn) [Compound A17], the IC50 was in the range of 10 to 1000 nM.

On to `CCN(CC)C(=O)c1cc(OC)c(OC)cc1-c1ccc2nc(N)nc(C(=O)N3Cc4ccccc4C3)c2c1` [Compound A88, 2-[2-Amino-4-(1,3-dihydroisoindole-2-carbonyl)quinazolin-6-yl]-N,N-diethyl-4,5-dimethoxybenzamide], for which the half-inhibitory concentration (IC50) lay in the range of 1000 to 10000 nM.

As to `CN(C1CNC1)S(=O)(=O)c1ccccc1-c1ccc2nc(N)nc(C(=O)N3Cc4ccccc4C3)c2c1` [Compound A68], the IC50 was 10 to 1000 nM.

Turning to `Nc1nc(C(=O)N2Cc3ccccc3C2)c2cc(-c3ccccc3S(=O)(=O)N3CCC(N)C3)ccc2n1` (stereo not drawn) [Compound A33, {2-amino-6-[2-(3-aminopyrrolidine-1-sulfonyl)phenyl]quinazolin-4-yl}-(1,3-dihydroisoindol-2-yl)methanone], the IC50 lay within 10 to 1000 nM.

Turning to `CNC(=O)C1CCCN1S(=O)(=O)c1ccccc1-c1ccc2nc(N)nc(C(=O)N3Cc4ccccc4C3)c2c1` (stereo not drawn) [Compound A58, 1-{2-[2-amino-4-(1,3-dihydroisoindole-2-carbonyl)quinazolin-6-yl]benzenesulfonyl}pyrrolidine-2-methylamide], the half-maximal inhibitory concentration (IC50) was in the range of 10 to 1000 nM.

For `CC1CCCN1C(=O)c1cc(F)c(F)cc1-c1ccc2nc(N)nc(C(=O)N3Cc4ccccc4C3)c2c1` (stereo not drawn) [Compound A79, {2-Amino-6-[4,5-difluoro-2-(2-methylpyrrolidine-1-carbonyl)phenyl]quinazolin-4-yl}-(1,3-dihydroisoindol-2-yl)methanone], the IC50 was 10 to 1000 nM.

Consider `Nc1nc(C(=O)N2Cc3ccccc3C2)c2cc(-c3ccccc3C(=O)N3CCC(O)C3)ccc2n1` (stereo not drawn) [Compound A36], for which the IC50 lay within 10 to 1000 nM.

Take `CCN(CC)C(=O)c1cc(F)c(F)cc1-c1ccc2nc(N)nc(C(=O)N3Cc4ccccc4C3)c2c1` [Compound A69, 2-[2-Amino-4-(1,3-dihydroisoindole-2-carbonyl)quinazolin-6-yl]-N,N-diethyl-4,5-difluorobenzamide]: the concentration for half-maximal inhibition (IC50) is 10 to 1000 nM.

With `CCN(C)C(=O)c1cc(F)c(F)cc1-c1ccc2nc(N)nc(C(=O)N3Cc4ccccc4C3)c2c1` [Compound A77, 2-[2-Amino-4-(1,3-dihydroisoindole-2-carbonyl)quinazolin-6-yl]-N-ethyl-4,5-difluoro-N-methylbenzamide], the half-maximal inhibitory concentration (IC50) was 10 to 1000 nM.
